# According to patent publication US4734409A, “Cephalosporin derivative, process for producing the same and pharmaceutical composition containing the same” (Kureha Kagaku Kogyo Kabushiki Kaisha, priority 1984, dated 1988):
# Key:
# [1] = tested on: Serratia marcescens IAM 1223; assay: Antibacterial activity, agar plate dilution method: S. marcescens IAM 1223; format: cell-based; conditions: Mueller-Hinton agar, 10^6 cells/ml, 37° C., 18 to 24 hours
# Procedure: (§1) Antibacterial activity of the present compound was examined by agar plate dilution method while following the standard method of Japan Society of Chemotherapy and using the following strain: 6. Serratia marcescens IAM 1223 Namely, after inoculating each bacteria on Mueller-Hinton culture medium, the inoculum was incubated for 18 to 48 hours at 37° C. and after adjusting the number of cells of each bacteria so as to contain 10^6 in one ml, the thus prepared specimen was used as the test bacterial liquid. Each of the present substances (the substance in Example 1 and the substance in Example 2) was dispersed in aqueous physiological saline solution at a predetermined concentration and the thus prepared dispersion was added to 9 times by volume of the culture medium for examining sensitivity (Mueller-Hinton culture medium) to prepare agar plates. On each agar plate, each of the test bacterial liquid was smeared at a width of about 2 cm, and the thus smeared agar plate was incubated for 18 to 24 hours at 37° C.
# [2] = tested on: bacteria (strains of Table 3); assay: Antibacterial activity, agar plate dilution method, overall; format: cell-based; conditions: as seen from Table 3
# Procedure: Antibacterial activity of the present compound was examined by agar plate dilution method while following the standard method of Japan Society of Chemotherapy and using the following strain:
# 2. Staphylococcus aureus IAM 1011
# 3. Escherichia coli W 3636
# 4. Proteus vulgaris IAM 1025
# 5. Pseudomonas aeruginosa IAM 1514
# 6. Serratia marcescens IAM 1223
# Namely, after inoculating each bacteria on Mueller-Hinton culture medium, the inoculum was incubated for 18 to 48 hours at 37° C. and after adjusting the number of cells of each bacteria so as to contain 10^6 in one ml, the thus prepared specimen was used as the test bacterial liquid.
# Each of the present substances (the substance in Example 1 and the substance in Example 2) was dispersed in aqueous physiological saline solution at a predetermined concentration and the thus prepared dispersion was added to 9 times by volume of the culture medium for examining sensitivity (Mueller-Hinton culture medium) to prepare agar plates.
# On each agar plate, each of the test bacterial liquid was smeared at a width of about 2 cm, and the thus smeared agar plate was incubated for 18 to 24 hours at 37° C.
# [3] = tested on: Pseudomonas aeruginosa IAM 1514; assay: Antibacterial activity, agar plate dilution method: P. aeruginosa IAM 1514; format: cell-based; conditions: Mueller-Hinton agar, 10^6 cells/ml, 37° C., 18 to 24 hours
# Procedure: as §1, with “5. Pseudomonas aeruginosa” for “6. Serratia marcescens”, “1514” for “1223”
# [4] = tested on: Escherichia coli IFO 12734; assay: Therapeutic effect on the experimental infectious disease on mice; format: in vivo, Escherichia coli (infected ddY-SPF mice)
# Description: Therapeutic effect of the present compounds on the infection was examined as follows.
# [5] = tested on: Staphylococcus aureus IAM 1011; assay: Antibacterial activity, agar plate dilution method: S. aureus IAM 1011; format: cell-based; conditions: Mueller-Hinton agar, 10^6 cells/ml, 37° C., 18 to 24 hours
# Procedure: as §1, with “2. Staphylococcus aureus” for “6. Serratia marcescens”, “1011” for “1223”
# Escherichia coli = assay: Effect on the intestinal bacterial colonies: E. coli in feces; format: in vivo, Escherichia coli (feces of female ICR-JCL mice); conditions: after administration; 100 mg/kg orally once a day, 2 days; before administration 6.4
# Procedure: (§2) Effect of the present compound on the intestinal bacterial colonies was examined as follows.
# (§3) The present compound prepared in Example 2 was orally administered to each of 5 animals of a group of female ICR-JCL mice of 6-weeks-old at a daily dosage of 100 mg/kg once a day for continuous 2 days. Feces of each of the mice were collected before and after one day of the administration, and after diluting thereof with 100 times by weight of an anaerobic diluent (an aqueous phosphoric acid buffer) the thus diluted feces were ground, and 0.1 ml of the thus ground and diluted feces was smeared on each culture medium for each bacterial species (shown in Table 1).
# (§4) After incubating the thus prepared culture media at 25° C. for one to five days aerobically in the cases of Escherichia coli, Pseudomonas aeruginosa and the Streptococcus species or anaerobically in the cases of the Lactobacillus acidophilus, Lactobacillus bifidus and the Bacterioides species, the number of each bacteria proliferating on the culture medium was counted.
# DHL aerobic, 37° C., one day
# Pseudomonas aeruginosa = assay: Effect on the intestinal bacterial colonies: P. aeruginosa in feces; format: in vivo, Pseudomonas aeruginosa (feces of female ICR-JCL mice); conditions: after administration; 100 mg/kg orally once a day, 2 days; before administration <3.0
# Procedure: as §2, §3, §4
# (2) Pseudomonas aeruginosa
SMILES,"minimal inhibitory concentration (MIC), S. marcescens IAM 1223 [1]",antibacterial activity (in words) [2],"minimal inhibitory concentration (MIC), P. aeruginosa IAM 1514 [3]","survival 7 days after inoculation ([4]; intravenous administration, dose not given)","minimal inhibitory concentration (MIC), S. aureus IAM 1011 [5]","Logarithmic value of the number of bacterial cells per one gram of feces, (1) E. coli (Escherichia coli)","survival 7 days after inoculation ([4]; 25 mg/kg orally, 1 time, 1 hour after intraperitoneal inoculation of 1.4×10^3 cells, all untreated mice died on the second day)","Logarithmic value of the number of bacterial cells per one gram of feces, (2) P. aeruginosa (Pseudomonas aeruginosa)"
"CO/N=C(\C(=O)N[C@@H]1C(=O)N2C(C(=O)O)=C(CSc3nnc(C)s3)CS[C@H]12)c1csc(NC(=O)C(Cl)Cl)n1 [Example 1, 7β-[2-(2-dichloroacetamido-4-thiazolyl)-(Z)-2-methoxyiminoacetamido]-3-[(2-methyl-1,3,4-thiadiazol-5-yl)thiomethyl]-3-cephem-4-carboxylic acid]",0.4,shows an antibacterial activity,50,All the ddY-SPF mice administered with the present compound produced in Example 1 via intravenation survived,0.78,–,–,–
CO/N=C(\C(=O)N[C@@H]1C(=O)N2C(C(=O)OCOC(=O)C(C)(C)C)=C(CSc3nnc(C)s3)CS[C@H]12)c1csc(NC(=O)C(Cl)Cl)n1 [Example 2],≥ 100,shows a low antibacterial activity,≥ 100,–,≥ 100,6.4 Logarithmic value of the number of bacterial cells per one gram of feces,all the mice administered with the present compound survived,< 3.0 Logarithmic value of the number of bacterial cells per one gram of feces
